Laboratory results reported in patent US10632127B2, “Targeted notch pathway inhibitors” (Hoffmann-La Roche Inc., priority 2015, dated 2020).
Where two headings read alike, the source gives them in different places.

Columns and labels:
[1] = Distribution in plasma, liver and kidney in the aristolochic acid mouse model (repeated i.p.); assay type: in vivo; settings: for concentration at 13 h: male, C57BL/6, mouse, ip
Experimental: (§1) For PK evaluation, the compounds were administered i.p to male C57BL/6 mice in suspension (gelatine/saline 7.5%/0.62% in water) using an administration volume of 4 mL/kg. Blood samples were collected in tubes containing EDTA, plasma was separated by centrifugation and stored at −80° C. Liver and kidney samples (˜100 mg aliquots) were homogenized in three volumes of water using Precellys tissue homogenization tubes (precellys.com). 25 μL of each tissue homogenate was further diluted with 25 μL blank plasma to produce the final tissue homogenate for extraction. All samples were analyzed using protein precipitation followed by LC-MS/MS analysis. Briefly, 50 μL plasma or final tissue homogenate were mixed with 50 μL 0.5M HClO4/acetonitrile 9/1 (containing 200 ng/mL internal standard bosentan). Samples were stirred and 300 μL water was added followed by centrifugation at 5600 rpm (4° C., 10 min). 10 μL supernatant was analyzed by LC/MS analysis. Calibration standards in plasma were prepared the same way. The LC column and conditions used were: Phenomenex, Polar RP, 4 μm, 50×2.1 mm at 0.4 mL/min flow rate with a 3 min gradient from 95% solvent A to 95% solvent B (Solvent A: Water/ACN/HCOOH, 90:10:0.1+10 mM NH4 formate; Solvent B: Water/ACN/HCOOH, 10:90:0.1+10 mM NH4 formate). Mass spectrometric conditions were: Thermo TSQ Vantage with positive heated electrospray ionization in MS/MS mode. Compounds mass transitions monitored were m/z 320.7 to 119.9. PK parameters for all studies were calculated using Phoenix WinNonlin Software.
All experiments with animals were conducted in accordance with federal and local regulation at the respective study location. Kidney injury was induced by intraperitoneal (i.p). injection of aristolochic acid (AA, Sigma-Aldrich, 1×5 mg/kg) in 10 weeks old BALB/c male mice. The γ-secretase inhibitors prodrugs were diluted in NaCl 0.9% and administered i.p., starting one day before the injection of AA (day −1) and then twice daily until day 6 evening (n=5 mice/experimental group). […] The kidneys were cut in four fragments. One fragment was immediately frozen in liquid nitrogen, one fragment was included in OCT (Tissue-Tek, VWR International, Switzerland) and frozen, one fragment was frozen at −80° C. and one fragment was fixed in 4% paraformaldehyde and included in paraffin.
To investigate potential nephroprotective effects of Notch blockade using γ-secretase inhibition and to evaluate the effects of our enzyme-targeted prodrug strategy, we used the in vivo AA mouse model of acute renal tubular damage. […]
Plasma and tissue concentrations of administered compound (Table 6A-C) and formed free γ-secretase inhibitor (8) (Table 6A) or amine-SecrI (11a) (Table 6B-C) were determined following 8-day repeated i.p. administration at 10 mg/kg b.i.d. (Table 6A) or 30 mg/kg b.i.d. […] Numbers in parentheses represent relative amounts with the exposure of 11a in kidney arbitrarily set at each time point to 100%. […] BQL=below quantifiable limit.

[2] = Pharmacokinetic assessment in C57BL/6 healthy wild-type mice (i.p.); assay type: in vivo, mouse; settings: C57BL/6 mice; for concentration at 0.5 h / concentration at 4 h / concentration at 7 h: male, mouse, ip
Experimental: as §1
We next determined the stability, tissue distribution and cleavage rate in plasma, liver and kidney of the designed prodrugs in non-diseased mice. In the in vivo screen, the kinetics and distribution of γ-secretase inhibitor prodrugs Ac-γ-Glu-SecrI (13a), Ac-α-Glu-SecrI (15a) and H-α-Glu-SecrI (15b) were compared with the active γ-secretase inhibitor amine-SecrI (11a). After i.p administration (10 mg/kg) in C57BL/6 mice, the disappearance of the prodrugs and the formation of the active amine-SecrI (11a) were compared in plasma, liver and kidney (Table 5). First, we determined the pharmacokinetics (PK) behavior of amine-SecrI (11a) following i.p. administration (Table 5A). […] Liver and kidney exposure were much higher, with approximately 4.5-fold higher exposure in liver compared to kidney. […] The selectivity towards kidney appeared to decrease over time, probably due to fast clearance and re-equilibration of the amine-SecrI (11a). However, the high selectivity at earlier time-points assured that the total exposure over time was much higher in the kidney compared to the liver.

[3] = AA-exposed mice, 11a 10 mg/kg b.i.d. i.p. repeated, 13 h
[4] = kidney, 10 mg/kg i.p., 0.5 h, read-out: Kidney concentration of administered compound
[5] = kidney, 10 mg/kg i.p., 4 h, read-out: Kidney concentration of administered compound
[6] = kidney, 10 mg/kg i.p., 7 h, read-out: Kidney concentration of administered compound
[7] = liver, 10 mg/kg i.p., 0.5 h, read-out: Liver concentration of administered compound
[8] = liver, 10 mg/kg i.p., 4 h, read-out: Liver concentration of administered compound
[9] = liver, 10 mg/kg i.p., 7 h, read-out: Liver concentration of administered compound
[10] = plasma, 10 mg/kg i.p., 0.5 h, read-out: Plasma concentration of administered compound
[11] = plasma, 10 mg/kg i.p., 7 h, read-out: Plasma concentration of administered compound
[12] = AA-exposed mice, 13a 30 mg/kg b.i.d. i.p. repeated, 13 h
[13] = mice, 13a 30 mg/kg b.i.d. i.p. repeated, without AA (Table 6B), 13 h

With C[C@H]1Oc2ccc(F)cc2N(CCO)C(=O)[C@H]1NC(=O)[C@@](C)(O)C(=O)NCC(F)(F)C(F)(F)F [Compound 8, N-[(6R,7S)-2-Fluoro-9-(2-hydroxy-ethyl)-6-methyl-8-oxo-6,7,8,9-tetrahydro-5-oxa-9-aza-benzocyclohepten-7-yl]-2-(S)-hydroxy-2-methyl-N′-(2,2,3,3,3-pentafluoro-propyl)-malonamide] the “Plasma concentration of formed 8” value [1, 3] was “BQL”.
In the case of C[C@H]1Oc2ccc(F)cc2N(CCOC(=O)NCCN)C(=O)[C@H]1NC(=O)[C@@](C)(O)C(=O)NCC(F)(F)C(F)(F)F.Cl [Compound 11a, 2-((2R,3S)-7-Fluoro-3-((S)-2-hydroxy-2-methyl-3-oxo-3-(2,2,3,3,3-pentafluoropropylamino)propanamido)-2-methyl-4-oxo-3,4-dihydrobenzo[b][1,4]oxazepin-5(2H)-yl)ethyl 2-aminoethylcarbamate hydrochloride], the “hydrolysis of the linker in 11a to the free antagonist 8” value ([2]; 10 mg/kg i.p.) is reported as “never observed significant amounts”, the “plasma exposure, in words” value ([2]; 10 mg/kg i.p.) is reported as “very low plasma exposure” and the “exposure in liver compared to kidney” value ([2]; 11a 10 mg/kg i.p.) is reported as “approximately 4.5 fold”. The “11a in kidney, relative amount (arbitrarily set to 100%)” value ([2]; 11a 10 mg/kg i.p., 0.5 h) was “(100) %”, the “11a in liver, relative amount (11a in kidney = 100%)” value ([2]; 11a 10 mg/kg i.p., 0.5 h) was “(450) %” and the “11a in kidney, relative amount (arbitrarily set to 100%)” value ([2]; 11a 10 mg/kg i.p., 4 h) was “(100) %”. The “11a in liver, relative amount (11a in kidney = 100%)” value ([2]; 11a 10 mg/kg i.p., 4 h) was “(250) %”, the “11a in kidney, relative amount (arbitrarily set to 100%)” value ([2]; 11a 10 mg/kg i.p., 7 h) was “(100) %” and the “11a in liver, relative amount (11a in kidney = 100%)” value ([2]; 11a 10 mg/kg i.p., 7 h) was “(290) %”. For the same compound, the “formed 11a in plasma at all time-points” value ([2]; after 13a 10 mg/kg i.p.) was “below the limit of quantitation”, the “Plasma concentration of formed 11a” value ([2]; after 13a 10 mg/kg i.p., 0.5 h) was “BQL” and the “Plasma concentration of formed 11a” value ([2]; after 13a 10 mg/kg i.p., 4 h) was “BQL”. The “Plasma concentration of formed 11a” value ([2]; after 13a 10 mg/kg i.p., 7 h) was “BQL”, the “Plasma concentration of formed 11a” value ([2]; after 15b 10 mg/kg i.p., 7 h) was “BQL” and the concentration at 0.5 h [2, 4] was 15500 ng/g. For the same compound, the concentration at 4 h [2, 5] was 1200 ng/g, the concentration at 7 h [2, 6] was 420 ng/g and the concentration at 0.5 h [2, 7] was 70000 ng/g. The concentration at 4 h [2, 8] was 3000 ng/g, the concentration at 7 h [2, 9] was 1200 ng/g and the concentration at 0.5 h [2, 10] was 97.8 ng/mL. The concentration at 4 h ([2]; plasma, 10 mg/kg i.p., 4 h, read-out: Plasma concentration of administered compound) was 1.32 ng/mL, the concentration at 7 h [2, 11] was 2.08 ng/mL and the “exposure of amine-SecrI (11a) in the Ac-γ-Glu-SecrI (13a) group, in words” value ([1]; 13a 30 mg/kg b.i.d., 12 h post administration, compared with 11a group) was “comparatively lower exposure”. The “exposure of kidney and liver with amine-SecrI (11a), in words” value ([1]; AA model, 11a 10 mg/kg b.i.d., 12 h post administration) was “high exposure of kidney and liver”, the “11a in kidney, relative amount (arbitrarily set to 100%)” value [1, 3] was “(100) %” and the “11a in liver, relative amount (11a in kidney = 100%)” value [1, 3] was 68%. For the same compound, the “Plasma concentration of formed 11a” value [1, 12] was “BQL”, the concentration at 13 h ([1]; kidney, 10 mg/kg, AA-exposed mice, 11a 10 mg/kg b.i.d. i.p. repeated, 13 h, read-out: Kidney concentration of 11a) was 1830 ng/g and the concentration at 13 h ([1]; liver, 10 mg/kg, AA-exposed mice, 11a 10 mg/kg b.i.d. i.p. repeated, 13 h, read-out: Liver concentration of 11a) was 1250 ng/g. For the same compound, the concentration at 13 h ([1]; plasma, 10 mg/kg, AA-exposed mice, 11a 10 mg/kg b.i.d. i.p. repeated, 13 h, read-out: Plasma concentration of 11a) was 7.2 ng/mL, the “Liver concentration of formed 11a” value [1, 13] was “BQL” and the “Plasma concentration of formed 11a” value [1, 13] was “BQL”.
In the case of CC(=O)N[C@@H](CCC(=O)NCCNC(=O)OCCN1C(=O)[C@@H](NC(=O)[C@@](C)(O)C(=O)NCC(F)(F)C(F)(F)F)[C@@H](C)Oc2ccc(F)cc21)C(=O)O [Compound 13a, (S)-2-acetamido-5-(2-((2-((2R,3S)-7-fluoro-3-((S)-2-hydroxy-2-methyl-3-oxo-3-(2,2,3,3,3-pentafluoropropylamino)propanamido)-2-methyl-4-oxo-3,4-dihydrobenzo[b][1,4]oxazepin-5(2H)-yl)ethoxy)carbonylamino)ethylamino)-5-oxopentanoic acid], the “conversion to amine-SecrI (11a), in words” value ([2]; 10 mg/kg i.p.) is reported as “high conversion”, the “plasma exposure, in words” value ([2]; 10 mg/kg i.p.) is reported as “low plasma exposure” and the “Plasma concentration of administered compound” value ([2]; 10 mg/kg i.p., 4 h) is reported as “BQL”. The “Kidney concentration of administered compound” value ([2]; 10 mg/kg i.p., 7 h) was “BQL”, the “Plasma concentration of administered compound” value ([2]; 10 mg/kg i.p., 7 h) was “BQL” and the concentration at 0.5 h [2, 4] was 1030 ng/g. For the same compound, the concentration at 4 h [2, 5] was 16.6 ng/g, the concentration at 0.5 h [2, 7] was 3570 ng/g and the concentration at 4 h [2, 8] was 625 ng/g. The concentration at 7 h [2, 9] was 22.3 ng/g, the concentration at 0.5 h [2, 10] was 4.88 ng/mL and the “Plasma concentration of 13a” value [1, 12] was “BQL”. It also gave a concentration at 13 h ([1]; kidney, 30 mg/kg, AA-exposed mice, 13a 30 mg/kg b.i.d. i.p. repeated, 13 h, read-out: Kidney concentration of 13a) of 23 ng/g, a concentration at 13 h ([1]; kidney, 30 mg/kg, mice, 13a 30 mg/kg b.i.d. i.p. repeated, without AA (Table 6B), 13 h, read-out: Kidney concentration of 13a) of 11 ng/g and a concentration at 13 h ([1]; liver, 30 mg/kg, AA-exposed mice, 13a 30 mg/kg b.i.d. i.p. repeated, 13 h, read-out: Liver concentration of 13a) of 155 ng/g. It also gave a concentration at 13 h ([1]; liver, 30 mg/kg, mice, 13a 30 mg/kg b.i.d. i.p. repeated, without AA (Table 6B), 13 h, read-out: Liver concentration of 13a) of 19 ng/g and a concentration at 13 h ([1]; plasma, 30 mg/kg, mice, 13a 30 mg/kg b.i.d. i.p. repeated, without AA (Table 6B), 13 h, read-out: Plasma concentration of 13a) of 6 ng/mL.
For CC(=O)N[C@@H](CCC(=O)O)C(=O)NCCNC(=O)OCCN1C(=O)[C@@H](NC(=O)[C@@](C)(O)C(=O)NCC(F)(F)C(F)(F)F)[C@@H](C)Oc2ccc(F)cc21 [Compound 15a, (S)-4-acetamido-5-(2-((2-((2R,3S)-7-fluoro-3-((S)-2-hydroxy-2-methyl-3-oxo-3-(2,2,3,3,3-pentafluoropropylamino)propanamido)-2-methyl-4-oxo-3,4-dihydrobenzo[b][1,4]oxazepin-5(2H)-yl)ethoxy)carbonylamino)ethylamino)-5-oxopentanoic acid], the “conversion to amine-SecrI (11a), in words” value ([2]; 10 mg/kg i.p.) was “much lower extent”, the “Plasma concentration of administered compound” value ([2]; 10 mg/kg i.p., 4 h) was “BQL” and the concentration at 0.5 h [2, 4] was 7540 ng/g. For the same compound, the concentration at 4 h [2, 5] was 81 ng/g, the concentration at 7 h [2, 6] was 33.8 ng/g and the concentration at 0.5 h [2, 7] was 7220 ng/g. For the same compound, the concentration at 4 h [2, 8] was 2850 ng/g, the concentration at 7 h [2, 9] was 737 ng/g and the concentration at 0.5 h [2, 10] was 573 ng/mL. The concentration at 7 h [2, 11] was 6.29 ng/mL.
